Experimental findings from patent publication EP0811378A1, “PREVENTIVE/REMEDY FOR INTERSTITIAL PNEUMONIA, INFLAMMATORY INTESTINAL DISEASES OR VASCULAR THICKENING CONTAINING QUINOLIZINONE COMPOUNDS, SALT THEREOF OR HYDRATES THEREFOR” (priority 1995, dated 1996) are described below.

Data set [1] has as its system silica-induced pulmonary fibrosis. Description: Efficacy in a mouse model of silica-induced pulmonary fibrosis. As to conditions: for Hydroxyproline content: lungs isolated 16 days after silica, Mean ± SE. The class given is in vivo, C57BL/6 mice. The method, then: Using C57BL/6 mice (8 weeks old, male gender), the neck was incised under pentobarbital anesthesia and silica (2 mg/0.1 ml/animal) was administered intra-tracheally. A sham operated intact group received physiological saline in the same manner. The drug was orally administered daily beginning the day of silica treatment till the day immediately preceding sacrifice. Thus, test compound 1 and tranilast were respectively administered once after silica treatment and twice daily on the next and subsequent days, in morning and evening. In the sham operated and control groups, 0.5% methylcellulose was similarly administered. Sixteen (16) days after sensitization, the mice were bled to death under pentobarbital anesthesia and the lungs were isolated. The hydroxyproline content of the isolated lungs was assayed and used as an indicator of pulmonary fibrosis. The difference in mean value between the control group and the treatment group or the sham operated group was tested by one-way analysis of variance and Dunnett multiple-comparison test.

Data set [2] has as its system bleomycin-induced pulmonary fibrosis. Description: Efficacy in a mouse model of bleomycin-induced pulmonary fibrosis. The format is in vivo, ICR mice. As to conditions: 1 mg/kg orally twice a day, day 28. The procedure:
ICR mice (12 weeks old, male gender) were intravenously dosed with bleomycin (10 mg/kg) daily for 10 days. Test compound 1 was suspended in 0.5% methylcellulose solution and administered orally twice a day beginning the first day of bleomycin treatment till the day immediately preceding sacrifice. A control group received 0.5% methylcellulose solution in the like manner. Twenty-eight (28) days reckoning from administration of the initial dose of bleomycin, the mice were sacrificed, the lungs were isolated, and the lung hydroxyproline content was determined in accordance with Woessner's method. Histopathological specimens were also prepared at the same time and the degree of fibrotic change was evaluated after Azan-Mallory staining.

In data set [3] the test system is acetic acid-induced colitis. Description: Efficacy in a rat model of acetic acid-induced colitis. The class given is in vivo, SD rats. The conditions noted are these: po, inhibition of lesion score, read-out: Degree of inhibition. The method, then:
Male SD rats (7-8 weeks old) were deprived of food for 24 hours and a suspension of test compound 2 in 0.5% methylcellulose solution was administered orally. Thirty (30) minutes later, 1 ml/rat of 4% acetic acid in saline was infused from the anus under ether anesthesia. An intact group received a saline infusion. The infusion was carried out over 20 seconds. Then, the animal was held in inverted upright position for 30 seconds, after which 2 ml of phosphate buffer solution was infused for washout. Twenty-four (24) hours later, the animal was sacrificed by carbon dioxide inhalation, the large intestine was isolated, and the local lesion was scored according to the following criteria. Lesion score 0. No lesion 1. Hyperemia without ulceration 2. Inflammation (hyperemia and thickening of the bowel wall) or ulceration without definite inflammation 3. Ulceration with inflammation at 1 site 4. Ulceration with inflammation at 2 or more sites 5. A large ulcer sized 1 cm or more 6-10. An ulcer sized 2 cm or more; 1 point added for each increment of 1 cm

The nature of data set [4]: Oral acute toxicity in rats. The format is in vivo.

Structures can show the parent of a compound that is named as a salt.

Consider `O=C(Nc1nnn[nH]1)c1cc(Oc2ccccc2)c2ccccn2c1=O` [Test compound 1, N-[5-(1H-tetrazolyl)]-1-phenoxy-4H-quinolizin-4-one-3-carboxamide sodium salt], for which the Hydroxyproline content entry in data set [1] (1 mg/kg orally twice daily, n=10) was “**144.41±9.69 µg/lung”. In addition, the inhibition (in general, the change of the read-out against control, counted positive when it falls) at 1 mg/kg in data set [1] (Mus musculus, po, 384 h, inhibition of lung hydroxyproline content, 1 mg/kg orally twice daily, day 16, read-out: Degree of inhibition) was found to be 88.7%; in data set [2] (Mus musculus, po, 672 h, inhibition of lung hydroxyproline content, read-out: Degree of inhibition), 88.6%. Moreover, in data set [2] (Azan-Mallory staining), the “Histopathological examination, degree of fibrotic change” value was “definite inhibition of pulmonary fibrosis”.
For `O=C(Nc1nnn[nH]1)c1cc(Oc2ccccc2)c2ccccn2c1=O` [Test compound 2, N-[5-(1H-tetrazolyl)]-1-phenoxy-4H-quinolizin-4-one-3-carboxamide sodium salt monohydrate], in data set [3] (1 mg/kg orally), the inhibition at 1 mg/kg came to 38.3%. Further, in data set [3] (10 mg/kg orally), the inhibition at 10 mg/kg was 68.1%. Moreover, the “oral acute toxicity LD50” value in data set [4] (female gender) is at least 5 g/kg/day; in data set [4] (male gender) it was 4.5 g/kg/day.
In data set [1] (100 mg/kg orally twice daily, n=9), `COc1ccc(/C=C/C(=O)Nc2ccccc2C(=O)O)cc1OC` [Tranilast, reference compound] came in with a Hydroxyproline content of 224.66±18.44 µg/lung. The inhibition at 100 mg/kg in data set [1] (Mus musculus, po, 384 h, inhibition of lung hydroxyproline content, 100 mg/kg orally twice daily, day 16, read-out: Degree of inhibition) amounted to 13.6%.
